Measurements published in US8143260B2, “Tricyclic amine compound” (Research Foundation Itsuu Laboratory, priority 2007, dated 2012).
“And” between values parts separate entries of the source, which are not always exact repeats. Identical values can stand only once.

System: human acute promyelocytic leukemia cell strain HL-60
Assay: Differentiation induction of HL-60 cells (NBT-reducing ability); enhancement of the retinoid action of Am80
Format: cell-based
Conditions: for Differentiation induction ratio (%), Am80 1 nM + Test compound: four days; for Differentiation induction ratio (%), Test compound alone: test compound alone 100 nM
Procedure: Cells of human acute promyelocytic leukemia cell strain HL-60 were cultured in a CO2 incubator (5% CO2, 37° C.) using the RPMI medium containing 5% FBS. Differentiation inducing action on the HL-60 cells induced by 4-[(5,6,7,8-tetrahydro-5,5,8,8-tetramethyl-2-naphthalenyl)carbamoyl]benzoic acid (Am80) was evaluated on the basis of ability to reduce nitroblue tetrazolium (NBT) determined by observing differentiation from promyelocytic cells into granulocytic cells as an index. The cells that entered into the logarithmic phase and reached a substantially confluent state were centrifuged at 1000 rpm for 5 minutes, and the culture supernatant was removed. The cell pellet was suspended in fresh RPMI medium containing 5% FBS at a density of 8.0×10^4 cells/ml, then the suspension was added with a test compound dissolved in DMSO at an intended concentration, and the cells were cultured for four days and then used for the experiment. The samples were prepared so as to have the same DMSO concentration.
Cell count of the cells after the culture for a predetermined period was determined by a cell counting method using a blood cell counting chamber. The NBT-reducing ability was obtained as follows. NBT was dissolved in phosphate buffered saline (PBS(−)) at a concentration of 0.2%, and the solution was added with an equivalent volume of the RPMI medium containing 5% FBS. The mixture was added with phorbol 12-myristate 13-acetate (tPA) at a concentration of 0.2 μM (about 200 ng) to prepare a reagent solution. The collected cells were centrifuged at 1000 rpm for 5 minutes, the supernatant was removed, and the remained cell pellet was added with the reagent solution. The mixture was incubated on a water bath at 37° C. for 20 minutes, and then NBT-reduced stained positive cells were counted by using the counting chamber to calculate a differentiation induction ratio. The same test was performed with allowing the compounds of the present invention prepared in the aforementioned examples (all were carboxylic acid compounds) to coexist with Am80 to confirm action of the compounds of the present invention for enhancing the retinoid action of Am80. As a compound having a retinoid action enhancing action (positive control), 4-[2,3-(2,5-dimethyl-2,5-hexano)dibenzo[b,f][1,4]thiazepin-11-yl]benzoic acid (HX630, Japanese Patent Unexamined Publication No. 10-59951) was used.

[1] = Am80 1 nM + test compound 1 × 10^−7M
[2] = Am80 1 nM + test compound 1 × 10^−8M
[3] = Am80 1 nM + test compound 1 × 10^−9M
[4] = cultured four days, NBT-positive cells

SMILES	Differentiation induction ratio (%), Am80 alone (Am80 alone 1 nM, cultured four days, NBT-positive cells)	Differentiation induction ratio (%), Am80 1 nM + Test compound [1] [%]	Differentiation induction ratio (%), Am80 1 nM + Test compound [2] [%]	Differentiation induction ratio (%), Am80 1 nM + Test compound [3] [%]	Differentiation induction ratio (%), Test compound alone [4] [%]
CC1(C)CCC(C)(C)c2cc(NC(=O)c3ccc(C(=O)O)cc3)ccc21 [Am80, 4-[(5,6,7,8-tetrahydro-5,5,8,8-tetramethyl-2-naphthalenyl)carbamoyl]benzoic acid, reference compound]	16.9% and 15.9%	–	–	–	–
CCN(c1ccc(C(=O)O)cc1)c1cc2c3c(c1)CCCC3CCC2 [Example 3, 4-[N-Ethyl-(5,6,6a,7,8,9-hexahydro-4H-2-phenalenyl)amino]benzoic acid]	–	25.8	26.4	20.5	1.5
O=C(O)c1ccc(N(CC2CC2)c2cc3c4c(c2)CCCC4CCC3)cc1 [Example 4, 4-[N-Cyclopropylmethyl-(5,6,6a,7,8,9-hexahydro-4H-2-phenalenyl)amino]benzoic acid]	–	82.9	37.5	23.9	1.9
CCN(c1ccc(C(=O)O)cc1)c1cc2c3c(c1)CCCCC3CCCC2 [Example 19, 4-[N-Ethyl-(5,6,7,7a,8,9,10,11-octahydro-4H-2-benzo[ef]heptalenyl)amino]benzoic acid]	–	85.4	44.6	31.8	2.2
O=C(O)c1ccc(N(CC2CC2)c2cc3c4c(c2)CCCCC4CCCC3)cc1 [Example 20, 4-[N-Cyclopropylmethyl-(5,6,7,7a,8,9,10,11-octahydro-4H-2-benzo[ef]heptalenyl)amino]benzoic acid]	–	89.8	54.8	35.2	1.4
CC1(C)CCC(C)(C)c2cc3c(cc21)Sc1ccccc1N=C3c1ccc(C(=O)O)cc1 [HX630, 4-[2,3-(2,5-dimethyl-2,5-hexano)dibenzo[b,f][1,4]thiazepin-11-yl]benzoic acid, reference compound]	–	72.3	27.8	20.4	1.6
